Data taken from patent US7893027B2, “Treatment of ocular wounds and ulcers” (The Board of Regents of the University of Oklahoma, priority 2002, dated 2011).

Columns and labels:
Format in all cases: cell-based, human
[1] = tested on: CAP37 protein in HCEC; assay: Immunocytochemical detection of CAP37 protein induction in HCEC; conditions: for Time of maximum CAP37 protein induction: HCEC
Experimental: (§1) For immunocytochemical analysis of HCEC and stromal keratocytes in culture, the cells were cultured on coverslips (CORNING COSTAR, Acton, Mass.) placed within 24-well tissue culture plates (CORNING COSTAR) until they reached 70% confluence and immunostained for CAP37 as described above except for the following changes. Cells were fixed in formol-acetone, pH 7.4 for 60 s at 4° C. (13) and were stained using the mouse anti-human CAP37 antiserum (1:500 dilution).
(§2) To determine if pro-inflammatory cytokines could induce CAP37 in HCEC and keratocytes we treated these cell cultures with TNF-α (0-10 ng/ml, Boehringer-Mannheim, Indianapolis, Ind.) and IL-1β (0-20 ng/ml, ENDOGEN, Woburn, Mass.) for 0-24 hr and assayed the cells immunocytochemically for the presence of CAP37 protein as described above. Untreated cell cultures were included for each test sample. In addition to protein detection, upregulation of CAP37 mRNA in response to TNF-α and IL-1β was measured by RT-PCR as described below.

[2] = tested on: CAP37 mRNA in HCEC; assay: RT-PCR of CAP37 mRNA induction in HCEC
Experimental: as §2
Cultured HCEC were treated with 5 ng/ml TNF-α and 10 ng/ml IL-1β for 0-8 hr at 37° C. Total cellular RNA was isolated from untreated and treated HCEC according to vendor specifications (TRIzol™, Gibco BRL). After reverse-transcription of 5 μg of total RNA by random oligonucleotide priming (hexanucleotide mix, BOEHRINGER-MANNHEIM, GmbH, Germany), the resulting single stranded cDNA was amplified by PCR (PERKIN ELMER 2400 thermocycler, Norwalk, Conn.) using CAP37 specific primers ([…] (SEQ ID NO:9) and […] (SEQ ID NO:10)) designed for a 597 bp internal fragment of HL60-CAP37 (34). The reaction conditions for reverse transcription were 80 units of RNAse inhibitor (SIGMA), 8 μl of 5× strand buffer, 2 μl of random hexanucleotide mix, 1 mM dNTPs (GIBCO BRL), 10 mM DTT (GIBCO BRL), and 400 units of M-MLV RT (GIBCO BRL) in a total volume of […]. The reaction mix was incubated at 37° C. for 50 min followed by incubation at 70° C. for 15 min. The PCR mix (1.5 mM MgCl2, 0.2 mM dNTPs, 1.26 μM of each primer and 1 unit Taq polymerase, GIBCO BRL) was amplified for 30 cycles. Amplified DNA fragments were separated by electrophoresis on a 1% agarose gel and visualized by exposure to UV after ethidium bromide (0.5 μg/ml) staining. To assess the integrity of the cDNA, primers for human β-actin were used.

[3] = tested on: CAP37 protein in stromal keratocytes; assay: Immunocytochemical detection of CAP37 protein induction in stromal keratocytes
Experimental: as §1, §2

[4] = tested on: PECAM-1 (CD31); assay: Flow cytometry of PECAM-1 expression on HCEC; conditions: TNF-α control, after 12 hr
Experimental: Flow cytometry was used to assess the upregulation of PECAM-1 (CD31), and the integrin molecules β1 (CD29), β2 (CD18), β3 (CD61), β4 (CD104), α1 (CD49a), α2 (CD49b), α3 (CD49c), α4 (CD 49d), and αv (CD51). Human corneal epithelial cells were cultured as above and treated with CAP37 (0-2000 ng/ml) for 0-72 hr. A corresponding culture was left untreated at each time point. Following treatment with CAP37, cells were detached with 0.25% trypsin in 1 mM EDTA (pH 7.4, FISHER SCIENTIFIC, Pittsburgh, Pa.), washed twice in PBS and fixed with 0.125% paraformaldehyde (J.T. BAKER, Phillipsburg, N.J.) overnight at 4° C. The cells were washed in PBS and then incubated in 0.5% normal goat serum and 0.5% bovine serum albumin (BSA) in PBS for 30 min to block non-specific binding sites. Cells were incubated in the primary antibody (at concentrations described below) at 4° C. for 1 hr followed by the secondary antibody (FITC-goat anti-mouse IgG, PHARMINGEN, San Diego, Calif.) at 0.5 μg/10^6 cells and incubated at 4° C. for 30 min. The isotype control for these studies was FITC-labeled mouse isotype IgG1 (PHARMINGEN). The cells were analyzed by flow cytometry (FACS Calibur, BECTON DICKINSON, San Jose, Calif.). At least ten thousand cells were analyzed for each sample. […]

Substance | Time of maximum CAP37 protein induction [1] [h] | Time point at which expression of CAP37 protein was observed ([1]; HCEC treated with IL-1β) [h] | Initial expression of CAP37 mRNA post stimulation ([2]; IL-1β 10 ng/ml) [h] | CAP37 mRNA ([2]; IL-1β 10 ng/ml, 6 hr) | Induction of CAP37 protein [3] | Duration of effect on PECAM-1 expression [4] | Earliest detection of CAP37 protein ([1]; HCEC treated with TNF-α) [min] | Earliest expression of CAP37 mRNA ([2]; TNF-α 5 ng/ml) [min] | Time of maximum CAP37 mRNA levels ([2]; TNF-α 5 ng/ml, reduced by 4 hr)
IL-1β: proinflammatory cytokine used to induce CAP37 | 24 | 4 | 1 | can be detected | showed the induction of CAP37 protein | – | – | – | –
TNF-α | 24 | – | – | – | showed the induction of CAP37 protein | more sustained, lasting until 24 hr | 60 | 15 | between 30 min and 2 hr
